Assay results from US9856279B2 (AGIOS PHARMACEUTICALS, INC, priority 2011, dated 2018).

Assays:
[1] = tested on: U87MG cells; experiment: Cellular assay for IDH1m inhibitors: inhibition of 2-HG production (LC-MS, 48 hours) in U87MG cells; format: cell-based; settings: Homo sapiens, U-87 MG, inhibition of 2-HG production, U87R132H cells; read-out: U87R132H IC50
Outline: (§1)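 Each cell line is plated at 5000 cells/well in DMEM with 10% FBS and left overnight at 37 °C. Test compounds are then added for 48 h, after which 2-HG in the medium is determined by LC-MS; IC50 reflects 50% reduction compared with control.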

[2] = molecular target: IDH1 R132H (Homo sapiens, UniProt O75874, R132H); experiment: Assay for IDH1 R132H inhibitors (NADPH/aKG, resazurin detection); format: biochemical; settings: enzyme assay of Example 12; read-out: IDH1R132H IC50
Outline: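 Compound added to substrate mix (8 uM NADPH, 2 mM aKG), then enzyme mix (0.2 μg/ml IDH1 R132H); 50 min RT in 20 mM Tris pH 7.5, 150 mM NaCl, 10 mM MgCl2, 0.03% BSA. Resazurin detection mix (30 μM) 5 min RT; resorufin fluorescence Ex544/Em590.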

[3] = tested on: HT1080 cells; experiment: Cellular assay for IDH1m inhibitors: inhibition of 2-HG production (LC-MS, 48 hours) in HT1080 cells; format: cell-based; settings: Homo sapiens, HT-1080; inhibition of 2-HG production, HT1080 cells; read-out: HT1080 IC50
Outline: as §1

Chain of IDH1 R132H (O75874 whole entry R132H): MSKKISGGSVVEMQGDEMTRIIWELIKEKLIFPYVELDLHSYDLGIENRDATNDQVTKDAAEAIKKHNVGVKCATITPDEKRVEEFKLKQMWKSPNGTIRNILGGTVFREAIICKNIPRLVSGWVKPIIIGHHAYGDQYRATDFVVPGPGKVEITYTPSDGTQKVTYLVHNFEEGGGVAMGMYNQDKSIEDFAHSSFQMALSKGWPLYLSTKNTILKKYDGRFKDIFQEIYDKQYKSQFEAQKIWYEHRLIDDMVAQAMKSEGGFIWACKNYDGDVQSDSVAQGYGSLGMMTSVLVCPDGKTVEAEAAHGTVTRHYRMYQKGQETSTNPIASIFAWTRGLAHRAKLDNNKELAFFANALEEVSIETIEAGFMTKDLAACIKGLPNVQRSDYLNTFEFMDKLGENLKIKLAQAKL

| Compound | IC50 [1] | IC50 [2] | IC50 [3] |
| --- | --- | --- | --- |
| C[C@@H]1CN(c2nc(C3CC3)c(-c3ccc(F)cc3)cc2C#N)CCN1C(=O)C1CC1 [Compound 550, (R)-2-(4-(cyclopropanecarbonyl)-3-methylpiperazin-1-yl)-6-cyclopropyl-5-(4-fluorophenyl)nicotinonitrile] | < 500 nM | 500 to 1000 nM | < 500 nM |
| C=Cc1ccc2c(-c3cc(C#N)c(N4CCN(C(=O)CC(F)(F)F)[C@H](C5CC5)C4)nc3C3CC3)cccc2n1 [Compound 551, (R)-6-cyclopropyl-2-(3-cyclopropyl-4-(3,3,3-trifluoropropanoyl)piperazin-1-yl)-5-(2-vinylquinolin-5-yl)nicotinonitrile] | < 500 nM | < 500 nM | < 500 nM |
| C=Cc1cc(-c2c(C3CC3)nc(N3CCN(C(=O)CCOC)[C@H](C4CC4)C3)c(C#N)c2C)ccn1 [Compound 558, (R)-2-cyclopropyl-6-(3-cyclopropyl-4-(3-methoxypropanoyl)piperazin-1-yl)-4-methyl-2′-vinyl-3,4′-bipyridine-5-carbonitrile] | < 500 nM | < 500 nM | < 500 nM |
| C=Cc1cc(-c2cc(C#N)c(N3CCN(C(=O)CC(C)(C)O)[C@H](C4CC4)C3)nc2C2CC2)ccn1 [Compound 561, (R)-2-cyclopropyl-6-(3-cyclopropyl-4-(3-hydroxy-3-methylbutanoyl)piperazin-1-yl)-2′-vinyl-3,4′-bipyridine-5-carbonitrile] | < 500 nM | < 500 nM | < 500 nM |
| C=Cc1cc(-c2cc(C#N)c(N3CCN(C(C)=O)[C@H](C4CC4)C3)nc2C2CC2)ccn1 [Compound 562, (R)-6-(4-acetyl-3-cyclopropylpiperazin-1-yl)-2-cyclopropyl-2′-vinyl-3,4′-bipyridine-5-carbonitrile] | < 500 nM | < 500 nM | < 500 nM |
| C=Cc1cc2c(-c3cc(C#N)c(N4CCN(C(=O)C5CC5)[C@H](C5CC5)C4)nc3C3CC3)cccc2cn1 [Compound 565, (R)-2-(4-(cyclopropanecarbonyl)-3-cyclopropylpiperazin-1-yl)-6-cyclopropyl-5-(3-vinylisoquinolin-5-yl)nicotinonitrile] | 500 to 1000 nM | < 500 nM | 500 to 1000 nM |
| C=Cc1cc(-c2cc(C#N)c(N3CCN(C(=O)CC(C)O)[C@H](C4CC4)C3)nc2C2CC2)ccn1 (stereo partly drawn) [Compound 568, 2-cyclopropyl-6-((3R)-3-cyclopropyl-4-(3-hydroxybutanoyl)piperazin-1-yl)-2′-vinyl-3,4′-bipyridine-5-carbonitrile] | < 500 nM | < 500 nM | < 500 nM |
| C=Cc1cc(-c2cc(C#N)c(N3CCN(C(=O)COCC)[C@H](C)C3)nc2C2CC2)ccn1 [Compound 573, (R)-2-cyclopropyl-6-(4-(2-ethoxyacetyl)-3-methylpiperazin-1-yl)-2′-vinyl-3,4′-bipyridine-5-carbonitrile] | < 500 nM | < 500 nM | < 500 nM |
| C=Cc1cnc2c(-c3cc(C#N)c(N4CCN(C(=O)CCOC)[C@H](C)C4)nc3C3CC3)cccc2n1 [Compound 579, (R)-6-cyclopropyl-2-(4-(3-methoxypropanoyl)-3-methylpiperazin-1-yl)-5-(2-vinylquinoxalin-5-yl)nicotinonitrile] | < 500 nM | < 500 nM | < 500 nM |
| C=Cc1cc(-c2cc(C#N)c(N3CCN(C(=O)CCOC)[C@H](C)C3)nc2C2CC2)c2ccncc2n1 [Compound 580, (R)-6-cyclopropyl-2-(4-(3-methoxypropanoyl)-3-methylpiperazin-1-yl)-5-(2-vinyl-1,7-naphthyridin-4-yl)nicotinonitrile] | < 500 nM | < 500 nM | < 500 nM |
| C=Cc1cc(Nc2cc(C#N)c(N3CCN(C(=O)CCO)[C@H](C)C3)nc2C2CC2)ccn1 [Compound 581, (R)-6-cyclopropyl-2-(4-(3-hydroxypropanoyl)-3-methylpiperazin-1-yl)-5-((2-vinylpyridin-4-yl)amino)nicotinonitrile] | < 500 nM | < 500 nM | < 500 nM |
| C=Cc1cc(-c2cc(C#N)c(N3CCN(C(=O)C[C@@H](C)O)[C@H](C4CC4)C3)nc2C2CC2)ccn1 [Compound 585, 2-cyclopropyl-6-((R)-3-cyclopropyl-4-((R)-3-hydroxybutanoyl)piperazin-1-yl)-2′-vinyl-3,4′-bipyridine-5-carbonitrile] | < 500 nM | < 500 nM | < 500 nM |
| C=Cc1cc(-c2cc(C#N)c(N3CCN(C(=O)CCO)[C@@H](C4CC4)C3)nc2C2CC2)ccn1 [Compound 587, (S)-2-cyclopropyl-6-(3-cyclopropyl-4-(3-hydroxypropanoyl)piperazin-1-yl)-2′-vinyl-[3,4′-bipyridine]-5-carbonitrile] | < 500 nM | < 500 nM | < 500 nM |
| C=Cc1cc(-c2c(C3CC3)nc(N3CCN(C(=O)CCO)[C@H](C4CC4)C3)c(C#N)c2C)ccn1 [Compound 589, (R)-2-cyclopropyl-6-(3-cyclopropyl-4-(3-hydroxypropanoyl)piperazin-1-yl)-4-methyl-2′-vinyl-3,4′-bipyridine-5-carbonitrile] | < 500 nM | < 500 nM | < 500 nM |
| C=Cc1cc(-c2cc(C#N)c(N3CCN(C(=O)COC)[C@H](C4CC4)C3)nc2C2CC2)ccn1 [Compound 590, (R)-2-cyclopropyl-6-(3-cyclopropyl-4-(2-methoxyacetyl)piperazin-1-yl)-2′-vinyl-3,4′-bipyridine-5-carbonitrile] | < 500 nM | < 500 nM | < 500 nM |
| C=Cc1cc(-c2cc(C#N)c(N3CCN(C(=O)CCO)[C@H](C)C3)nc2C2CC2)c2ccccc2n1 [Compound 591, (R)-6-cyclopropyl-2-(4-(3-hydroxypropanoyl)-3-methylpiperazin-1-yl)-5-(2-vinylquinolin-4-yl)nicotinonitrile] | < 500 nM | < 500 nM | < 500 nM |
| C=Cc1cc(-c2cc(C#N)c(N3CCN(C(=O)CCOC)[C@H](C)C3)nc2C2CC2)c2ccccc2n1 [Compound 592, (R)-6-cyclopropyl-2-(4-(3-methoxypropanoyl)-3-methylpiperazin-1-yl)-5-(2-vinylquinolin-4-yl)nicotinonitrile] | < 500 nM | < 500 nM | < 500 nM |
| C=Cc1cc(-c2cc(C#N)c(N3CCN(C(=O)C[C@H](C)O)[C@H](C4CC4)C3)nc2C2CC2)ccn1 [Compound 595, 2-cyclopropyl-6-((R)-3-cyclopropyl-4-((S)-3-hydroxybutanoyl)piperazin-1-yl)-2′-vinyl-3,4′-bipyridine-5-carbonitrile] | < 500 nM | < 500 nM | < 500 nM |
| C=Cc1cc(-c2cc(C#N)c(N3CCN(C(=O)CCOC)[C@H](C)C3)nc2C2CC2)ncn1 [Compound 597, (R)-6-cyclopropyl-2-(4-(3-methoxypropanoyl)-3-methylpiperazin-1-yl)-5-(6-vinylpyrimidin-4-yl)nicotinonitrile] | < 500 nM | < 500 nM | < 500 nM |
| C=Cc1cc(-c2cc(C#N)c(N3CCN(C(=O)CCOC)[C@H](C)C3)nc2C2CC2)c2cccnc2n1 [Compound 599, (R)-6-cyclopropyl-2-(4-(3-methoxypropanoyl)-3-methylpiperazin-1-yl)-5-(2-vinyl-1,8-naphthyridin-4-yl)nicotinonitrile] | < 500 nM | < 500 nM | < 500 nM |
| C=Cc1ncc2c(-c3cc(C#N)c(N4CCN(C(=O)CCOC)[C@H](C)C4)nc3C3CC3)cccc2n1 [Compound 603, (R)-6-cyclopropyl-2-(4-(3-methoxypropanoyl)-3-methylpiperazin-1-yl)-5-(2-vinylquinazolin-5-yl)nicotinonitrile] | < 500 nM | < 500 nM | < 500 nM |
| C=Cc1cnc2c(-c3cc(C#N)c(N4CCN(C(=O)CCOC)[C@H](C(C)C)C4)nc3C3CC3)cccc2n1 [Compound 605, (R)-6-cyclopropyl-2-(3-isopropyl-4-(3-methoxypropanoyl)piperazin-1-yl)-5-(2-vinylquinoxalin-5-yl)nicotinonitrile] | < 500 nM | < 500 nM | < 500 nM |
| C=Cc1ccc2c(-c3cc(C#N)c(N4CCN(C(=O)CCOC)[C@H](C)C4)nc3C3CC3)cccc2n1 [Compound 608, (R)-6-cyclopropyl-2-(4-(3-methoxypropanoyl)-3-methylpiperazin-1-yl)-5-(2-vinylquinolin-5-yl)nicotinonitrile] | < 500 nM | < 500 nM | < 500 nM |
| C=Cc1cc(-c2cc(C#N)c(N3CCN(C(=O)CCO)[C@H](C)C3)nc2C2CC2)c2ccncc2n1 [Compound 609, (R)-6-cyclopropyl-2-(4-(3-hydroxypropanoyl)-3-methylpiperazin-1-yl)-5-(2-vinyl-1,7-naphthyridin-4-yl)nicotinonitrile] | < 500 nM | < 500 nM | < 500 nM |
| C#CC(=O)N1CC=C(c2cc(C#N)c(N3CCN(C(=O)C4CC4)[C@H](C)C3)nc2C2CC2)C1 [Compound 610, (R)-2-(4-(cyclopropanecarbonyl)-3-methylpiperazin-1-yl)-6-cyclopropyl-5-(1-propioloyl-2,5-dihydro-1H-pyrrol-3-yl)nicotinonitrile] | < 500 nM | < 500 nM | < 500 nM |
